In ChEMBL document CHEMBL3885881, “DrugMatrix”:

Species: Rattus norvegicus
Assay: DrugMatrix - Regimen: Daily Repeat
Type: toxicity, organism-based, Sprague-Dawley
Parameters: regimen Daily Repeat, gender Male, age 6-8 weeks
Conditions: in vivo, po, route oral GAVAGE, vehicle .5 % CMC; for ABSOLUTE BASOPHIL / ABSOLUTE EOSINOPHIL / ABSOLUTE LYMPHOCYTE / ABSOLUTE MONOCYTE / ABSOLUTE SEGMENTED NEUTROPHIL / BASOPHIL / EOSINOPHIL / ERYTHROCYTE COUNT / HEMATOCRIT / HEMOGLOBIN / LEUKOCYTE COUNT / LYMPHOCYTE / MEAN CORPUSCULAR HEMOGLOBIN / MEAN CORPUSCULAR HEMOGLOBIN CONCENTRATION / MEAN CORPUSCULAR VOLUME / MONOCYTE / NEUTROPHIL / NUCLEATED RED BLOOD CELLS / PLATELET COUNT: tissue Blood; for ALANINE AMINOTRANSFERASE / ALBUMIN / ALKALINE PHOSPHATASE / ASPARTATE AMINOTRANSFERASE / BLOOD UREA NITROGEN / CARBON DIOXIDE / CHLORIDE / CHOLESTEROL / CREATINE PHOSPHOKINASE / CREATININE / GLUCOSE / LACTATE DEHYDROGENASE / LIPASE / PHOSPHORUS / POTASSIUM / SODIUM / TOTAL BILIRUBIN / TOTAL PROTEIN / URIC ACID: tissue Plasma
[1] = 0 mg/kg, 72 h, dose level Control, time 3 day
[2] = 0 mg/kg, 120 h, dose level Control, time 5 day
[3] = 385.5 mg/kg, 72 h, dose level Low, time 3 day

Cn1c(=O)c2c(ncn2CC(O)CO)n(C)c1=O (centres undefined) [DYPHYLLINE]
ABSOLUTE BASOPHIL [1]: 0 CELLS/uL
ABSOLUTE EOSINOPHIL [1]: 32.5 CELLS/uL
ABSOLUTE LYMPHOCYTE [1]: 13494.17 CELLS/uL
ABSOLUTE MONOCYTE [1]: 474 CELLS/uL
ABSOLUTE SEGMENTED NEUTROPHIL [1]: 1932.67 CELLS/uL
BASOPHIL [1]: 0%
EOSINOPHIL [1]: 0.17%
ERYTHROCYTE COUNT [1]: 5.45 x10E6/uL
HEMATOCRIT [1]: 34.32%
HEMOGLOBIN [1]: 13.82 G/DL
LEUKOCYTE COUNT [1]: 15.93 x10E3/uL
LYMPHOCYTE [1]: 84.83%
MEAN CORPUSCULAR HEMOGLOBIN [1]: 25.38 pg
MEAN CORPUSCULAR HEMOGLOBIN CONCENTRATION [1]: 40.27 G/DL
MEAN CORPUSCULAR VOLUME [1]: 63.05 fL
MONOCYTE [1]: 3%
NEUTROPHIL [1]: 12%
NUCLEATED RED BLOOD CELLS [1]: 0.67 /100WBC
PLATELET COUNT [1]: 1188.5 x10E3/uL
ALANINE AMINOTRANSFERASE [1]: 54.83 u/L
ALBUMIN [1]: 4.22 G/DL
ALKALINE PHOSPHATASE [1]: 427.67 u/L
ASPARTATE AMINOTRANSFERASE [1]: 86.5 u/L
BLOOD UREA NITROGEN [1]: 15.33 mg/dL
CARBON DIOXIDE [1]: 24.83 mmol/L
CHLORIDE [1]: 102.33 MEQ/L
CHOLESTEROL [1]: 71.67 mg/dL
CREATINE PHOSPHOKINASE [1]: 442.5 u/L
CREATININE [1]: 0.19 mg/dL
GLUCOSE [1]: 160.67 mg/dL
LACTATE DEHYDROGENASE [1]: 236.5 u/L
LIPASE [1]: 9 u/L
PHOSPHORUS [1]: 11.97 mg/dL
POTASSIUM [1]: 6.2 MEQ/L
SODIUM [1]: 142.85 MEQ/L
TOTAL BILIRUBIN [1]: 0.2 mg/dL
TOTAL PROTEIN [1]: 5.8 G/DL
URIC ACID [1]: 1.3 mg/dL
ABSOLUTE BASOPHIL [2]: 0 CELLS/uL
ABSOLUTE EOSINOPHIL [2]: 114.5 CELLS/uL
ABSOLUTE LYMPHOCYTE [2]: 14614 CELLS/uL
ABSOLUTE MONOCYTE [2]: 173 CELLS/uL
ABSOLUTE SEGMENTED NEUTROPHIL [2]: 1048.5 CELLS/uL
BASOPHIL [2]: 0%
EOSINOPHIL [2]: 0.67%
ERYTHROCYTE COUNT [2]: 5.66 x10E6/uL
HEMATOCRIT [2]: 35.52%
HEMOGLOBIN [2]: 14.27 G/DL
LEUKOCYTE COUNT [2]: 15.95 x10E3/uL
LYMPHOCYTE [2]: 91.33%
MEAN CORPUSCULAR HEMOGLOBIN [2]: 25.23 pg
MEAN CORPUSCULAR HEMOGLOBIN CONCENTRATION [2]: 40.2 G/DL
MEAN CORPUSCULAR VOLUME [2]: 62.7 fL
MONOCYTE [2]: 1.17%
NEUTROPHIL [2]: 6.83%
NUCLEATED RED BLOOD CELLS [2]: 0.33 /100WBC
PLATELET COUNT [2]: 1229 x10E3/uL
ALANINE AMINOTRANSFERASE [2]: 58.67 u/L
ALBUMIN [2]: 4.32 G/DL
ALKALINE PHOSPHATASE [2]: 382.5 u/L
ASPARTATE AMINOTRANSFERASE [2]: 81.67 u/L
BLOOD UREA NITROGEN [2]: 17.67 mg/dL
CARBON DIOXIDE [2]: 27.17 mmol/L
CHLORIDE [2]: 102.33 MEQ/L
CHOLESTEROL [2]: 63.67 mg/dL
CREATINE PHOSPHOKINASE [2]: 227.67 u/L
CREATININE [2]: 0.23 mg/dL
GLUCOSE [2]: 155.33 mg/dL
LACTATE DEHYDROGENASE [2]: 146.5 u/L
LIPASE [2]: 10.67 u/L
PHOSPHORUS [2]: 11.93 mg/dL
POTASSIUM [2]: 6.85 MEQ/L
SODIUM [2]: 143.95 MEQ/L
TOTAL BILIRUBIN [2]: 0.18 mg/dL
TOTAL PROTEIN [2]: 6.02 G/DL
URIC ACID [2]: 1.63 mg/dL
ABSOLUTE BASOPHIL [3]: 0 CELLS/uL
ABSOLUTE EOSINOPHIL [3]: 40.67 CELLS/uL
ABSOLUTE LYMPHOCYTE [3]: 10748 CELLS/uL
ABSOLUTE MONOCYTE [3]: 461.33 CELLS/uL
ABSOLUTE SEGMENTED NEUTROPHIL [3]: 1483.33 CELLS/uL
BASOPHIL [3]: 0%
EOSINOPHIL [3]: 0.33%
ERYTHROCYTE COUNT [3]: 5.3 x10E6/uL
HEMATOCRIT [3]: 33.37%
HEMOGLOBIN [3]: 13.27 G/DL
LEUKOCYTE COUNT [3]: 12.73 x10E3/uL
LYMPHOCYTE [3]: 86%
MEAN CORPUSCULAR HEMOGLOBIN [3]: 25.13 pg
MEAN CORPUSCULAR HEMOGLOBIN CONCENTRATION [3]: 39.8 G/DL
MEAN CORPUSCULAR VOLUME [3]: 63.07 fL
MONOCYTE [3]: 3%
NEUTROPHIL [3]: 10.67%
NUCLEATED RED BLOOD CELLS [3]: 0.33 /100WBC
PLATELET COUNT [3]: 1358 x10E3/uL
ALANINE AMINOTRANSFERASE [3]: 42.67 u/L
ALBUMIN [3]: 4.03 G/DL
ALKALINE PHOSPHATASE [3]: 400.67 u/L
ASPARTATE AMINOTRANSFERASE [3]: 72 u/L
BLOOD UREA NITROGEN [3]: 15.67 mg/dL
CARBON DIOXIDE [3]: 25.33 mmol/L
CHLORIDE [3]: 103 MEQ/L
CHOLESTEROL [3]: 72.33 mg/dL
CREATINE PHOSPHOKINASE [3]: 199.67 u/L
CREATININE [3]: 0.14 mg/dL
GLUCOSE [3]: 152 mg/dL
LACTATE DEHYDROGENASE [3]: 149.67 u/L
LIPASE [3]: 9.33 u/L
PHOSPHORUS [3]: 13 mg/dL
POTASSIUM [3]: 7.04 MEQ/L
SODIUM [3]: 144.5 MEQ/L
TOTAL BILIRUBIN [3]: 0.17 mg/dL
TOTAL PROTEIN [3]: 5.57 G/DL
URIC ACID [3]: 1.53 mg/dL
